The values below come from patent US5061714A, “Isoquinoline composition for the treatment of glaucoma or ocular hypertension” (priority 1989, dated 1991).

This series is described as follows: Acute toxicity test (LD50) in mice. Conditions: mouse, in vivo. The protocol: 4-(3-tert.-Butylamino-2-hydroxypropoxy)-2-methyl-1-isoquinolinone hydrochloride and 4-(3-tert.-butylamino-2-hydroxypropoxy)-1-isoquinolinonehydrochloride, respectively were administered to mice to determine the LD50 value.

The LD50 is the dose expected to kill half of the subjects tested.

Counter-ions that a name gives are not always drawn.

For `CC(C)(C)NCC(O)COc1c[nH]c(=O)c2ccccc12` (centres unmarked) [4-(3-tert.-butylamino-2-hydroxypropoxy)-1-isoquinolinonehydrochloride], the LD50 came out at 367 mg/kg (ip, intraperitoneal, female); 382 mg/kg (ip, intraperitoneal, male); 2470 mg/kg (po, female); 2810 mg/kg (po, male).
For `Cl.Cn1cc(OCC(O)CNC(C)(C)C)c2ccccc2c1=O` (centres unmarked) [4-(3-tert.-butylamino-2-hydroxypropoxy)-2-methyl-1-isoquinolinone hydrochloride], the 50% lethal dose (LD50) runs as follows: (ip, intraperitoneal, female) 557 mg/kg; (ip, intraperitoneal, male) 578 mg/kg; (po, female) 1290 mg/kg; (po, male) 1390 mg/kg.
